Key:
tolerability and safety = details: in vivo
Protocol: It is more commonly provided in dosages of from 1 to 20 mg per patient per day. […] Other adverse reactions are possible. […] Both compounds may be administered by any suitable method including a convenient oral dosage form. A preferred method is oral dosing twice a day.

[1] = test system: muscarinic cholinergic receptors; test: interaction with muscarinic cholinergic receptors; format: binding
serotonin uptake = test system: serotonin uptake
Text: (§1) Leonard-BE, “Noradrenaline in basic models of depression.” European-Neuropsychopharnacol. April 1997; 7 Suppl 1: S11-6; discussion S71-3.

norepinephrine uptake = details: compared with classical tricyclic antidepressants
Text: as §1

monoamine oxidase (MAO) = test system: monoamine oxidase (MAO)
Text: as §1

dopamine uptake = test system: dopamine uptake
Text: as §1

[2] = test system: patients with a DSM-III-R diagnosis of Obsessive Compulsive Disorder; test: trial in patients with Obsessive Compulsive Disorder; format: in vivo, human; details: of 10 OCD patients, 6 mg first week then 8 mg, 3 to 4 weeks
Text: This study is provided to illustrate the usefulness of using reboxetine as a treatment for OCD and the invention described herein should not be considered limited by this example.

8-OH-DPAT hypothermia = details: in vivo; cited from earlier work
I-adrenerigic receptors = test: interaction with I-adrenerigic receptors; format: binding

Compound | tolerability / safety (tolerability and safety) | interaction with muscarinic cholinergic receptors [1] | serotonin uptake inhibitory activity (serotonin uptake) | inhibition of the reuptake of noradrenaline (norepinephrine uptake) | monoamine oxidase (MAO) inhibitory activity (monoamine oxidase (MAO)) | dopamine uptake inhibitory activity (dopamine uptake) | patients judged minimally improved at CGI last assessment [2] | patients judged much improved at CGI last assessment [2] | patients judged very much improved at CGI last assessment [2] | patients unchanged at CGI last assessment [2] | effect in the 8-OH-DPAT hypothermia test (8-OH-DPAT hypothermia) | interaction with I-adrenerigic receptors (I-adrenerigic receptors)
CC(C)NCC(O)COc1cccc2[nH]ccc12 (stereo not drawn) [Pindolol, 1-(1H-Indol-4-yloxy)-3-[(1-methylethyl)amino]-2-propanol] | fairly safe | – | – | – | – | – | – | – | – | – | – | –
CCOc1ccccc1OC(c1ccccc1)C1CNCCO1 (stereo not drawn) [reboxetine] | – | without showing any appreciable interaction | only marginal | inhibitory properties of classical tricyclic antidepressants | devoid | no dopamine uptake inhibitory activity | 2 | 4 | one | 3 | ineffective | without showing any appreciable interaction
